From patent publication US4264625A, “Pesticidal unsymmetrical bis-arylcarbamate sulfide compounds” (Union Carbide Corporation, priority 1978, dated 1981)

Columns and labels:
Format in all cases: in vivo
[1] = test system: southern armyworm (Prodenia eridania, (Cram.)); assay: Southern Armyworm Leaf Spray Test; parameters: key: A: excellent control; B: partial control; C: no control; conditions: 500 ppm leaf spray, larvae, three days, mortality rating
Procedure: (§1) Suspensions of the test compounds were prepared by dissolving one gram of compound in 50 milliliters of acetone in which had been dissolved 0.1 gram (10 percent of the weight of compound) of an alkylphenoxy polyethoxyethanol surfactant, as an emulsifying or dispersing agent. The resulting solution was mixed into 150 milliliters of water to give roughly 200 milliliters of a suspension containing the compound in finely divided form. The thus-prepared stock suspension contained 0.5 percent by weight of compound. The test concentrations in parts per million by weight employed in the tests described hereinbelow were obtained by appropriate dilutions of the stock suspension with water. The test procedures were as follows:
Southern Armyworm Leaf Spray Test
Larvae of the southern armyworm (Prodenia eridania, (Cram.)), reared on Tendergreen bean plants at a temperature of 80°±5° F. and a relative humidity of 50±5 percent, constituted the test insects.
The test compounds were formulated by diluting the stock suspension with water to give a suspension containing 500 parts of test compound per million parts of final formulation. Potted Tendergreen bean plants of standard height and age were placed on a revolving turntable and sprayed with 100-110 milliliters of test compound formulation by use of a DeVilbiss spray gun set at 10 psig air pressure. This application, which lasted 25 seconds, was sufficient to wet plants to run-off. As a control, 100-110 milliliters of a water-acetone-emulsifier solution containing no test compound were also sprayed on infested plants. When dry, the paired leaves were separated and each one was placed in a 9 centimeter Petri dish lined with moistened filter paper. Five randomly selected larvae were introduced into each dish and the dishes were closed. The closed dishes were labeled and held at 80°-85° F. for three days. Although the larvae could easily consume the whole leaf within twenty-four hours, no more food was added. Larvae which were unable to move the length of the body, even upon stimulation by prodding, were considered dead. Percent mortality was recorded for various concentration levels.
(§2) In these tests the pesticidal activity of the compounds against aphid, mite, Southern Armyworm, Bean Beetle and house fly was rated as follows: […]

[2] = test system: bean aphid (Aphis fabae Scop.); assay: Bean Aphid Foliage Spray Test; parameters: key: A: excellent control; B: partial control; C: no control; conditions: 500 ppm foliage spray, 24 hours, mortality rating
Procedure: as §1
Bean Aphid Foliage Spray Test
Adults and nymphal stages of the bean aphid (Aphis fabae Scop.) reared on potted dwarf nasturtium plants at 65°-70° F. and 50-70 percent relative humidity, constituted the test insects. For testing purposes, the number of aphids per pot was standardized to 100-150 by trimming plants containing excess aphids.
The test compounds were formulated by diluting the stock suspension with water to give a suspension containing 500 parts of test compound per million parts of final formulation.
The potted plants (one pot per compound tested) infested with 100-150 aphids, were placed on a revolving turntable and sprayed with 100-110 milliliters of test compound formulation by use of a DeVilbiss spray gun set at 40 psig. air pressure. This application, which lasted 25 seconds, was sufficient to wet the plants to run-off. As a control, 100-110 milliliters of a water-acetone-emulsifier solution containing no test compound were also sprayed on infested plants. After spraying, the pots were placed on their sides on a sheet of white standard mimeograph paper which had been previously ruled to facilitate counting. Temperature and humidity in the test room during the 24 hour holding period were 65°-70° F. and 50-70 percent, respectively. Aphids which fell onto the paper and were unable to remain standing after being uprighted were considered dead. Aphids remaining on the plants were observed closely for movement and those which were unable to move the length of the body upon stimulation by prodding were considered dead. Percent mortality was recorded for various concentration levels.
as §2

[3] = test system: two-spotted mite (Tetranychus urticae Koch); assay: Mite Foliage Spray Test; parameters: key: A: excellent control; B: partial control; C: no control; conditions: 500 ppm foliage spray, six days, mortality rating
Procedure: as §1
Adults and nymphal stages of the two-spotted mite (Tetranychus urticae Koch), reared on Tendergreen bean plants at 80±5 percent relative humidity, were the test organisms. Infested leaves from a stock culture were placed on the primary leaves of two bean plants six to eight inches in height, growing in a two-and-a-half inch clay pot. 150-200 Mites, a sufficient number for testing, transferred from the excised leaves to the fresh plants in a period of twenty four hours. Following the twenty four hour transfer period, the excised leaves were removed from the infested plants. The test compounds were formulated by diluting the stock suspension with water to give a suspension containing 500 parts of test compound per million parts of final formulation. The potted plants (one pot per compound) were placed on a revolving turntable and sprayed with 100-110 milliliters of test compound formulation by use of a DeVilbiss spray gun set at 40 psig. air pressure. This application, which lasted 25 seconds, was sufficient to wet the plants to run-off. As a control, 100-110 milliliters of a water solution containing acetone and emulsifier in the same concentrations as the test compound formulation, but containing no test compound, were also sprayed on infested plants. The sprayed plants were held at 80±5 percent relative humidity for six days, after which a mortality count of motile forms was made. Microscopic examination for motile forms was made on the leaves of the test plants. Any individual which was capable of locomotion upon prodding was considered living.
as §2

Corn = conditions: 2500 ppm spray, ten days, rating 1-5
Procedure: (§3) POST-EMERGENT HERBICIDAL TEST
(§4) Experiments were also conducted to determine the phytotoxicity of representative compositions with respect to healthy fresh plants. Solutions of the compounds were prepared as described above to provide a concentration of 2500 parts per million of the test compound. The test plants were sprayed in accordance with the procedure described above for the Mite Foliage Spray Test so as to deliver approximately 100 milliliters of test solution to the leaves of each plant tested. The sprayed plants and controls were set aside for approximately one hour to allow the solutions to dry and were then placed in the greenhouse. After ten days the plants were visually inspected to determine the extent of foliage injury. A rating of 1 indicates no perceptible injury; 5 indicates the plant was dead and ratings of 2, 3 and 4 indicate intermediate degrees of injury based upon the number and extent to which leaves were injured.

Bean = conditions: 2500 ppm spray, ten days, rating 1-5
Procedure: as §3, §4

Tomato = conditions: 2500 ppm spray, ten days, rating 1-5
Procedure: as §3, §4

Soybean = conditions: 2500 ppm spray, ten days, rating 1-5
Procedure: as §3, §4

Cotton = conditions: 2500 ppm spray, ten days, rating 1-5
Procedure: as §3, §4

[4] = test system: house flies (Musca domestica, L.); assay: Fly Bait Test; parameters: key: A: excellent control; B: partial control; C: no control; conditions: 500 ppm in sugar-solution bait, 24 hours, mortality rating
Procedure: as §1
Four to six day old adult house flies (Musca domestica, L.) reared according to the specifications of the Chemical Specialties Manufacturing Association (Blue Book, McNair-Dorland Co., N.Y. 1954; pages 243-244, 261) under controlled conditions of 80°±5° F. and 50±5 percent relative humidity, were the test insects. The flies were immobilized by anesthetizing with carbon dioxide and twenty five immobilized individuals, males and females, were transferred to a cage consisting of a standard food strainer about five inches in diameter which was inverted over a wrapping-paper-covered surface. The test compounds were formulated by diluting the stock suspension with a 10 percent (by weight) sugar solution to give a suspension containing 500 parts of test compound per million parts of final formulation, by weight. Ten milliliters of the test formulation were added to a souffle cup containing a one-inch square of an absorbent cotton pad. This bait cup was introduced and centered on the blotting paper under the food strainer prior to admitting the anesthetized flies. The caged flies were allowed to feed on the bait for twenty four hours, at a temperature of 80°±5° F. and the relative humidity of 50±5 percent.
as §2

[5] = test system: Mexican bean beetle (Epilachna varivestis, Muls.); assay: Mexican Bean Beetle Leaf Spray Test; parameters: key: A: excellent control; B: partial control; C: no control; conditions: 500 ppm leaf spray, fourth instar larvae, three days, mortality rating
Procedure: as §1
Mexican Bean Beetle Leaf Spray Test
Fourth instar larvae of the Mexican bean beetle (Epilachna varivestis, Muls.), reared on Tendergreen bean plants at a temperature of 80°±5° F. and 50±5 percent relative humidity, were the test insects.
The test compounds were formulated by diluting the stock suspension with water to give a suspension containing 500 parts of test compound per million parts of final formulation. Potted Tendergreen bean plants of standard height and age were placed on a revolving turntable and sprayed with 100-110 milliliters of test compound formulation by use of a DeVilbiss spray gun set at 10 psig air pressure. This application, which lasted 25 seconds, was sufficient to wet plants to run-off. As a control, 100-110 milliliters of a water-acetone-emulsifier solution containing no test compound were also sprayed on infested plants. When dry, the paired leaves were separated and each was placed in a 9 centimeter Petri dish lined with moistened filter paper. Five randomly selected larvae were introduced into each dish, and the dishes were closed. The closed dishes were labeled and held at a temperature of 80°±5° F. for three days. Although the larvae could easily consume the leaf within 24 to 48 hours, no more food was added. Larvae which were unable to move the length of the body, even upon stimulation, were considered dead.
as §2

Row | SMILES | Pesticidal Activity, Southern Armyworm [1] | Pesticidal Activity, Aphid [2] | Pesticidal Activity, Mite [3] | Phytotoxicity, Corn (Corn) | Phytotoxicity, Bean (Bean) | Phytotoxicity, Tomato (Tomato) | Phytotoxicity, Soybean (Soybean) | Phytotoxicity, Cotton (Cotton) | Pesticidal Activity, House fly [4] | Pesticidal Activity, Mexican Bean Beetle [5]
1 | CN(SN(C)C(=O)Oc1ccccc1C1SCCS1)C(=O)Oc1ccccc1C1SCCS1 | A | A | C | 1 | 1 | 1 | 1 | 1 | A | A
2 | C=CCc1ccc(OC(=O)N(C)SN(C)C(=O)Oc2ccc(CC=C)cc2OC)c(OC)c1 | C | C | C | 1 | 1 | 1 | 1 | 1 | C | C
3 | C#CCOc1ccccc1OC(=O)N(C)SN(C)C(=O)Oc1cccc2ccccc12 | A | A | C | 1 | 1 | 1 | 2 | 1 | A | A
4 | COC(=O)Nc1ccc(OC(=O)N(C)SN(C)C(=O)Oc2ccc(NC(=O)OC)c(C(C)C)c2)cc1C(C)C | A | C | C | 1 | 1 | 1 | 1 | 1 | C | A
5 | Cc1cc(OC(=O)N(C)SN(C)C(=O)Oc2ccc(N=CN(C)C)c(C)c2)ccc1N=CN(C)C [drawing 39] | A | A | A | 1 | 2 | 1 | 2 | 1 | A | A
6 | Cc1cc(OC(=O)N(C)SN(C)C(=O)Oc2ccc(N=CN(C)C)c(C)c2)ccc1N=CN(C)C [drawing 37] | A | A | A | 1 | 1 | 1 | 1 | 1 | A | A
7 | Cc1cc(OC(=O)N(C)SN(C)C(=O)Oc2ccc(N=CN(C)C)c(C)c2)ccc1N=CN(C)C [drawing 41] | A | A | A | 1 | 1 | 1 | 2 | 1 | A | A
8 | CCCCCCCCCCCCc1ccc(OC(=O)N(C)SN(C)C(=O)Oc2cccc3ccccc23)cc1 | A | C | C | 1 | 1 | 1 | 1 | 1 | C | A
9 | CCCCCCCCCc1ccc(OC(=O)N(C)SN(C)C(=O)Oc2cccc3ccccc23)cc1 | A | C | C | 1 | 1 | 1 | 1 | 1 | C | A
10 | CN(SN(C)C(=O)Oc1cccc2c1OC(C)(C)C2)C(=O)Oc1ccccc1C1SCCS1 | A | A | B | 1 | 1 | 1 | 1 | 1 | A | A
